Reference: ChEMBL document CHEMBL3232860, “Evaluation of structural effects on 5-HT(2A) receptor antagonism by aporphines: identification of a new aporphine with 5-HT(2A) antagonist activity” (Bioorg Med Chem Lett, 2014)

Key:
Homo sapiens = organism: Homo sapiens; assay: Selectivity ratio of Ke for human 5-HT2A receptor to Ke for alpha1A adrenergic receptor (unknown origin)
[1] = molecular target: T1, Alpha-1A adrenergic receptor (Homo sapiens) (UniProt P35348); assay: Antagonist activity at alpha1A adrenergic receptor (unknown origin) assessed as inhibition of mobilization of internal calcium at 10 uM by FLIPR assay; type: functional
T1 sequence (whole entry): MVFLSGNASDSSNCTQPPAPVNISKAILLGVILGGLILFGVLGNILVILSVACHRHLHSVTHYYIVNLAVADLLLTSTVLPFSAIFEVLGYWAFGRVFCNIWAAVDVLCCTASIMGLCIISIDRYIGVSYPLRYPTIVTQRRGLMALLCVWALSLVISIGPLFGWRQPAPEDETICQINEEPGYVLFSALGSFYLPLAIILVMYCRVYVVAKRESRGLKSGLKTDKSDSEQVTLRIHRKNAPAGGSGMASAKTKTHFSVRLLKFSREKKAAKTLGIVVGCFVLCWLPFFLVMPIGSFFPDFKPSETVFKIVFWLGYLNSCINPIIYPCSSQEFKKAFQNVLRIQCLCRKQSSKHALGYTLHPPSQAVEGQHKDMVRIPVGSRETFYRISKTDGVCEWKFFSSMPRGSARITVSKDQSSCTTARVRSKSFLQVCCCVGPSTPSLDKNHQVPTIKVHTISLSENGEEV

[2] = molecular target: 5-hydroxytryptamine receptor 2A (Homo sapiens) (UniProt P28223); assay: Antagonist activity at human 5-HT2A receptor assessed as inhibition of 5-HT-induced mobilization of internal calcium at 10 uM by FLIPR assay; type: functional
Chain of 5-hydroxytryptamine receptor 2A (Homo sapiens) (P28223 whole entry): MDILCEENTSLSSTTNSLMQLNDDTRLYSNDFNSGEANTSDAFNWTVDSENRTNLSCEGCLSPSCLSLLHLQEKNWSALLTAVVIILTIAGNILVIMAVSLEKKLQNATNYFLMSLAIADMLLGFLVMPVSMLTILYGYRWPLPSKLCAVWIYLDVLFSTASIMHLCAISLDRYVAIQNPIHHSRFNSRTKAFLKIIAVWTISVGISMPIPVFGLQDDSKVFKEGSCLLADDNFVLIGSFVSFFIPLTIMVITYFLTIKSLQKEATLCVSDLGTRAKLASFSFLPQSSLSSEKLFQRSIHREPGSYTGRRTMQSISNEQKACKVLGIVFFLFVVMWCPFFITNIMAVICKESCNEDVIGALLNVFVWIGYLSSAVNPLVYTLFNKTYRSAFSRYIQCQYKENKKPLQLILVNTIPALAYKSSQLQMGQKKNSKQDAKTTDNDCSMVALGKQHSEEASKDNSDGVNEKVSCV

| SMILES | Ratio Ke (Homo sapiens) | Ke [1] | Ke [2] |
| --- | --- | --- | --- |
| C=CCc1cc2c3c(c1OC)-c1cc4c(cc1CC3N(C)CC2)OCO4 (stereo unspecified) | 0.85 | 566 nM | 485 nM |
| C=CCc1cc2c3c(c1O)-c1cc4c(cc1CC3N(C)CC2)OCO4 (stereo unspecified) |  | > 3000 nM | > 3000 nM |
| COc1cc2c3c(c1OC)-c1cc4c(cc1CC3OCC2)OCO4 (stereo unspecified) |  | > 3000 nM | > 3000 nM |
| COc1cc2c3c(c1OC)-c1cc4c(cc1C[C@@H]3N(C)CC2)OCO4 | 3.4 | 196 nM | 657 nM |
| C=CCOc1ccc2c3c1-c1cc4c(cc1CC3N(C)CC2)OCO4 (stereo unspecified) | 0.06 | 744 nM | 47 nM |
| COc1cc2c3c(c1OC)-c1cc4c(cc1C[C@H]3N(C)CC2)OCO4 | 13.5 | 70 nM | 946 nM |
| CN1CCc2ccc(O)c3c2C1Cc1cc2c(cc1-3)OCO2 (stereo unspecified) |  | 2950 nM | > 3000 nM |
| C=CCc1cc2c3c(c1OCC1CC1)-c1cc4c(cc1CC3N(C)CC2)OCO4 (stereo unspecified) | < 0.32 | > 3000 nM | 963 nM |
| C=CCOc1c(CC=C)cc2c3c1-c1cc4c(cc1CC3N(C)CC2)OCO4 (stereo unspecified) | < 0.45 | > 3000 nM | 1370 nM |
| C=CCOc1c(OC)cc2c3c1-c1cc4c(cc1CC3OCC2)OCO4 (stereo unspecified) |  | > 3000 nM | > 3000 nM |
